Experimental data from ChEMBL document CHEMBL1201862, “PubChem BioAssay data set” (2004).
The source made the active and inactive calls.

Key:
[1] = Late stage counterscreen for inhibitors of Trypanosoma brucei methionyl tRNA synthetase (MetRS): Luminescence-based cell-based high throughput dose response assay to identify compounds that are cytotoxic to Jurkat human T lymphocyte cells.; type: functional
[2] = Counterscreen for inhibitors of Trypanosoma brucei methionyl tRNA synthetase (MetRS): Luminescence-based cell-based high throughput dose response assay to identify compounds that are cytotoxic to Jurkat human T lymphocyte cells.; type: functional
[3] = target: T1, Methionyl-tRNA synthetase, putative (Trypanosoma brucei brucei, UniProt Q38C91); type: functional, Trypanosoma brucei brucei strain 927/4 GUTat10.1
T1 sequence (Q38C91 whole entry): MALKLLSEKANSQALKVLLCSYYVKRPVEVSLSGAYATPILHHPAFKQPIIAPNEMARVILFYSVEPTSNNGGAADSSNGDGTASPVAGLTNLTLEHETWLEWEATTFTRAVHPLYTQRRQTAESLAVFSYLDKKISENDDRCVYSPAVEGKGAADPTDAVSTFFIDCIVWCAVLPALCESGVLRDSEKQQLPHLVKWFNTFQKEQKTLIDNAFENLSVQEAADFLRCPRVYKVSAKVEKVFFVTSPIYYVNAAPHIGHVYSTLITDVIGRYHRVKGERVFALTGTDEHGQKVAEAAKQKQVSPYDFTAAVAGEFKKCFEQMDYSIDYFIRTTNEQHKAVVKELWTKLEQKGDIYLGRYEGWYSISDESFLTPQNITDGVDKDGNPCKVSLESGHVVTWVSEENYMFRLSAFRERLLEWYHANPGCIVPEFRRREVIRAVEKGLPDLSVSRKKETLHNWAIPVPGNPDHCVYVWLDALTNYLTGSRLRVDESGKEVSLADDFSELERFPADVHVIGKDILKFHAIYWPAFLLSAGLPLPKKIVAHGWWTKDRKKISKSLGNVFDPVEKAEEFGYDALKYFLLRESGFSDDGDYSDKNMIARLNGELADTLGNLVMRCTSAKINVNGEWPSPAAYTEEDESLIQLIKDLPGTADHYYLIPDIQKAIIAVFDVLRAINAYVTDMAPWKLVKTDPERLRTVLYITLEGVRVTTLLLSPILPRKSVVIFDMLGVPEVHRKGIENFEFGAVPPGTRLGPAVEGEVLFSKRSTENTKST

[4] = target: T1, Methionyl-tRNA synthetase, putative; type: functional, Trypanosoma brucei brucei strain 927/4 GUTat10.1; remark: listed apart in the source
[5] = target: T2, Zinc finger protein mex-5 (Caenorhabditis elegans, UniProt Q9XUB2); assay: MEX-5/TCR-2 RNA interaction inhibitors, dose response, biochemical, C. elegans, fluorescence polarization (AID 1960)
T2 sequence (Q9XUB2 whole entry): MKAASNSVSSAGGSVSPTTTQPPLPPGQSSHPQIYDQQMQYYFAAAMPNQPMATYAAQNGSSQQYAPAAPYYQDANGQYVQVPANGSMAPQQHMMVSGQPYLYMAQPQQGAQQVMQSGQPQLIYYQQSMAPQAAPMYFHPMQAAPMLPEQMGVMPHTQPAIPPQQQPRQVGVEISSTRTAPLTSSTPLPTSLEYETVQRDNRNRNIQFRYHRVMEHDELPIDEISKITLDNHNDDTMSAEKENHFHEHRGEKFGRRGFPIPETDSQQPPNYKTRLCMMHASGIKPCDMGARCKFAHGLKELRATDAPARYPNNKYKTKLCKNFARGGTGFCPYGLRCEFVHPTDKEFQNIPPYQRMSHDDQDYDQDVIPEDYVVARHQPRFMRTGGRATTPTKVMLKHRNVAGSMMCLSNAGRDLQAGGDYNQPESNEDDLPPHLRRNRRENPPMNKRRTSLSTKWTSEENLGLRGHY

[6] = target: T3, High affinity choline transporter 1 (Homo sapiens, UniProt Q9GZV3); assay: CHT inhibitors, dose response, cell-based, 5-point CRC, membrane potential dye (AID 504840); type: functional
T3 sequence (Q9GZV3 whole entry): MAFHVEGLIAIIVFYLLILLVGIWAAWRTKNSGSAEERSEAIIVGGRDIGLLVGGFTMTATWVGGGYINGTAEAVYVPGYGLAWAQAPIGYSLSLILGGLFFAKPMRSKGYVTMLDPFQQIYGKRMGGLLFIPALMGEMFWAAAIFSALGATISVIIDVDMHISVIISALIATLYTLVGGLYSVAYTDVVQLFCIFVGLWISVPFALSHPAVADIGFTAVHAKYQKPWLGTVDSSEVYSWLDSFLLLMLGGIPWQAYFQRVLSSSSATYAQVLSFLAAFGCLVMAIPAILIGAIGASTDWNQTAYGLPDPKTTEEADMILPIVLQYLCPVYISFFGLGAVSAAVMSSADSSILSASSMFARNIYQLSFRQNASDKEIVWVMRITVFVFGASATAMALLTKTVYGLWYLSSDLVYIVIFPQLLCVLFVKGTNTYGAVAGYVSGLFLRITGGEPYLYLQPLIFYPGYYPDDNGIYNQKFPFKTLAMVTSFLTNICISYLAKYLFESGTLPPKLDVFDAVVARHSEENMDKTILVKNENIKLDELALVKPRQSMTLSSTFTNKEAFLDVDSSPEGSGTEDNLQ

[7] = target: T4, RNA-binding protein pos-1 (Caenorhabditis elegans, UniProt G5EF15); assay: inhibitors of POS-1/mex-3 RNA binding, dose response, biochemical, fluorescence polarization (AID 1964);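 note: purified POS-1 fused to maltose binding protein made in E. coli; potency of compounds blocking POS-1 binding to fluorescent RNA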
T4 sequence (G5EF15 whole entry): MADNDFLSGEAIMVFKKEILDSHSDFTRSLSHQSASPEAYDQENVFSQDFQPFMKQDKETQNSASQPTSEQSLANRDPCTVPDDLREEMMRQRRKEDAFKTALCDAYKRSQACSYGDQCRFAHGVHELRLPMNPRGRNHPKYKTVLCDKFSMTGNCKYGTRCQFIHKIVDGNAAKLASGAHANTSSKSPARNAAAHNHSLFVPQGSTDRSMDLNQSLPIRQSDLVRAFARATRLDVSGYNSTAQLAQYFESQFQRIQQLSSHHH

[8] = HeLa cell cytotoxicity, dose response, cytotoxicity control, CellTiter-Glo luminescence, dry powder, set 2 (AID 720593); type: functional, cell-based
[9] = HepG2 hepatoma cell cytotoxicity, dose response, cytotoxicity control, CellTiter-Glo luminescence, dry powder, set 3 (AID 720594); type: functional, cell-based
[10] = HEK293T cell cytotoxicity, dose response, cytotoxicity control, CellTiter-Glo luminescence, dry powder, set 2 (AID 720595); type: functional, cell-based; details: HEK293
[11] = NIH:OVCAR-3 ovarian cancer cell cytotoxicity, dose response, PAX8 inhibitor project, plate reader, dry powder samples (AID 743044); type: functional, cell-based
[12] = PAX2 cell-based inhibition, dose response, selectivity assay for PAX8 inhibitor project, plate reader, dry powder samples (AID 743048); type: functional;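 note: HEK293 cells carrying a WT1 promoter luciferase reporter driven by expressed Pax2; potency is for inhibition of Pax2 driven reporter signal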
[13] = cytotoxicity in OVCAR4 cells, dose response, cytotoxicity control for PAX8 inhibitor project, cell-based, plate reader, dry powder, SA11 (AID 743150); type: functional; details: OVCAR-4
[14] = A2780 ovarian cancer cell cytotoxicity, dose response, cytotoxicity control, plate reader, dry powder samples (AID 743046); type: functional, cell-based
Paired box protein Pax-8 = Paired box protein Pax-8 (Homo sapiens, UniProt Q06710); assay: inhibitors of PAX8-driven TPO luciferase reporter, dose response, RMG-I cells, cherry-pick (AID 687027); type: functional, cell-based;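 note: luciferase reporter driven by Pax8 target thyroperoxidase promoter measured by SteadyGlo luminescence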
[15] = cytotoxicity dependent on PAX8, dose response, cell-based, plate reader, dry powder (AID 743049); type: functional
[16] = IGROV1 ovarian cancer cell cytotoxicity, dose response, PAX8 inhibitor project, plate reader, dry powder samples (AID 743043); type: functional, cell-based; details: IGROV-1
[17] = cytotoxicity in COV434 cells, dose response, cytotoxicity control for PAX8 inhibitor project, cell-based, plate reader, dry powder, SA7 (AID 743145); type: functional
[18] = cytotoxicity in OV-90 ovarian cancer cells, dose response, PAX8 inhibitor project, cell-based, plate reader, dry powder, SA8 (AID 743149); type: functional
[19] = cytotoxicity in COV362 ovarian cancer cells, dose response, cytotoxicity control for PAX8 inhibitor project, cell-based, plate reader, dry powder, SA12 (AID 743144); type: functional
[20] = target: NAD-dependent protein deacylase sirtuin-5, mitochondrial (Homo sapiens, UniProt Q9NXA8); assay: SIRT5 desuccinylase inhibitors, dose response, biochemical, fluorescence imaging, cherry-pick, set 5 (AID 720591);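 note: desuccinylation of succinyl peptide AMC substrate read as fluorescence after trypsin release; potency of inhibitors that lower fluorescence and may act on trypsin instead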
Sequence of NAD-dependent protein deacylase sirtuin-5, mitochondrial (Q9NXA8 whole entry): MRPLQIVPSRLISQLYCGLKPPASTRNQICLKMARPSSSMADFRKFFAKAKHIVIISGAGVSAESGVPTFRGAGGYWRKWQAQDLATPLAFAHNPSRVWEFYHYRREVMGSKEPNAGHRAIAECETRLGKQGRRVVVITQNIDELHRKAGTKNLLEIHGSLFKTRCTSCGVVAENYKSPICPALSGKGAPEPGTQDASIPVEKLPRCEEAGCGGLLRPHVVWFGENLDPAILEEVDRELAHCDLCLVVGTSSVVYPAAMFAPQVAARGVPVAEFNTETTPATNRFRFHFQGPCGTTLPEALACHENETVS

Sequence of Paired box protein Pax-8 (Q06710 whole entry): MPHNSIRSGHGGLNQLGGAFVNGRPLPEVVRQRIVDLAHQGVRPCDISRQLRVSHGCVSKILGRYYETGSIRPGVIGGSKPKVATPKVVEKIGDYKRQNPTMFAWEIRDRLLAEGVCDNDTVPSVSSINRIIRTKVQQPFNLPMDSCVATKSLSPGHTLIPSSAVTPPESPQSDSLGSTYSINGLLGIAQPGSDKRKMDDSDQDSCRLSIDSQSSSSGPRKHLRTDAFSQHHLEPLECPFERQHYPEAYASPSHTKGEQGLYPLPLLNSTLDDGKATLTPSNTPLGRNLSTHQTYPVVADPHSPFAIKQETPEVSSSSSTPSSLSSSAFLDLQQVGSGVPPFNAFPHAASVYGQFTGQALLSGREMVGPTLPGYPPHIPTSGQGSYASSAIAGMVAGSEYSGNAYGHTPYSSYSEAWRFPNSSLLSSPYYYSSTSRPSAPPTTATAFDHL

O=C(NCc1nc2ccccc2[nH]1)C1=C[C@H](C2CC2)C[C@H](OCc2ccc(CO)cc2)O1
IC50 [1]: > 83.3 µM (inactive) | IC50 [2]: 83.3 µM (inactive) | IC50 [3]: 3.68 µM (active) | IC50 [4]: 8.95 µM (active)

CCn1c2ccccc2c(=O)c2ccccc21
EC50 [5]: > 300 µM (not active) | AC50 (cells): 1.59 µM (active) | IC50 [6]: 15.1 µM (active) | EC50 [7]: > 300 µM (not active)

CC(C)C(=O)NC(c1ccco1)c1cc(Cl)c2cccnc2c1O (configuration not stated)
AC50 [8]: 28.3 µM (active) | AC50 [9]: > 52 µM (inactive) | AC50 [10]: 8.31 µM (active)

COc1cc(/C=C2\SC(=S)N(CCC(=O)N3CCCCC3)C2=O)cc(OC)c1OC
AC50 [11]: 15.5 µM (active) | AC50 [12]: 69.6 µM (active) | AC50 [13]: 43 µM (active) | AC50 [14]: 26.3 µM (active) | AC50 (Paired box protein Pax-8): 8.62 µM (active) | AC50 [15]: 15 µM (active) | AC50 [16]: 13.1 µM (active) | AC50 [17]: 26.8 µM (active) | AC50 [18]: 35.9 µM (active) | AC50 [19]: 31.2 µM (active)

COc1ccc(C)cc1NC(=O)CCN1CC(C)OC(C)C1 (configuration not stated)
AC50 [20]: > 30 µM (inactive)
